According to ChEMBL document CHEMBL4261526 (Medchemcomm, 2017):

Legend:
Acetylcholinesterase [1] = target: T1, Acetylcholinesterase (Homo sapiens, UniProt P22303); assay: Inhibition of recombinant human AChE using acetylthiocholine iodide as substrate preincubated for 20 mins followed by substrate addition and measured for 5 mins by Ellman's assay
in vitro [2] = details: human, HepG2 cells
Description: Cytotoxicity against human HepG2 cells assessed as cell viability at 300 uM by MTT assay relative to control

in vitro [3] = details: human, HepG2 cells; remark: listed apart in the source
Description: Cytotoxicity against human HepG2 cells assessed as cell viability at 100 uM by MTT assay relative to control

in vitro [4] = details: human, HepG2 cells; remark: listed apart in the source
Description: Cytotoxicity against human HepG2 cells assessed as cell viability at 1 uM by MTT assay relative to control

in vitro [5] = details: human, HepG2 cells; remark: listed apart in the source
Description: Cytotoxicity against human HepG2 cells assessed as cell viability at 10 uM by MTT assay relative to control

Cholinesterase [6] = target: T2, Cholinesterase (Homo sapiens, UniProt P06276); assay: Inhibition of human serum BuChE using butyrylthiocholine iodide as substrate preincubated for 20 mins followed by substrate addition and measured for 5 mins by Ellman's assay
Acetylcholinesterase [7] = target: T1, Acetylcholinesterase; assay: Inhibition of recombinant human AChE using acetylthiocholine iodide as substrate preincubated for 30 mins followed by substrate addition and measured for 20 mins by Ellman's assay
Cholinesterase [8] = target: T2, Cholinesterase; assay: Inhibition of recombinant human BuChE using butyrylthiocholine as substrate preincubated for 30 mins followed by substrate addition and measured for 20 mins by Ellman's assay
Homo sapiens = species on record: Homo sapiens; assay: Selectivity ratio of IC50 for recombinant human BuChE to IC50 for recombinant human AChE
Cholinesterase [9] = target: T2, Cholinesterase; assay: Potency index, ratio of tacrine IC50 to test compound IC50 for human serum BuChE
Acetylcholinesterase [10] = target: T1, Acetylcholinesterase; assay: Potency index, ratio of tacrine IC50 to test compound IC50 for recombinant human AChE

T2 sequence (P06276 whole entry): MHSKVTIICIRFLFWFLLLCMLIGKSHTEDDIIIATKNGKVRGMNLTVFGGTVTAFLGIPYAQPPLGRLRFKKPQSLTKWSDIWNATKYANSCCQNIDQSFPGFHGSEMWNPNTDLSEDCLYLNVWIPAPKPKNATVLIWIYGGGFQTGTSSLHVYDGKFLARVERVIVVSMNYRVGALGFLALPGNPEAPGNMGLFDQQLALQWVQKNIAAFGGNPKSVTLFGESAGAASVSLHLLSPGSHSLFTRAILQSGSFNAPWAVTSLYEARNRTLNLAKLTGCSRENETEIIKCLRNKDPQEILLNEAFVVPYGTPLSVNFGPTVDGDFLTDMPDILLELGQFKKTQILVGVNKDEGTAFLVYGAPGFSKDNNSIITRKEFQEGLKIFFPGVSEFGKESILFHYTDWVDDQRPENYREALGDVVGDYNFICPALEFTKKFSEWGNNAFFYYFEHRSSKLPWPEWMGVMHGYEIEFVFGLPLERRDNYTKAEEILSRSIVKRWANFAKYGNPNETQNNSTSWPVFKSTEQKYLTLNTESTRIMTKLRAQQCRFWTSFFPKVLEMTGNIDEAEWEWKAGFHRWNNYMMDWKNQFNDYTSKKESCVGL
T1 sequence (P22303 whole entry): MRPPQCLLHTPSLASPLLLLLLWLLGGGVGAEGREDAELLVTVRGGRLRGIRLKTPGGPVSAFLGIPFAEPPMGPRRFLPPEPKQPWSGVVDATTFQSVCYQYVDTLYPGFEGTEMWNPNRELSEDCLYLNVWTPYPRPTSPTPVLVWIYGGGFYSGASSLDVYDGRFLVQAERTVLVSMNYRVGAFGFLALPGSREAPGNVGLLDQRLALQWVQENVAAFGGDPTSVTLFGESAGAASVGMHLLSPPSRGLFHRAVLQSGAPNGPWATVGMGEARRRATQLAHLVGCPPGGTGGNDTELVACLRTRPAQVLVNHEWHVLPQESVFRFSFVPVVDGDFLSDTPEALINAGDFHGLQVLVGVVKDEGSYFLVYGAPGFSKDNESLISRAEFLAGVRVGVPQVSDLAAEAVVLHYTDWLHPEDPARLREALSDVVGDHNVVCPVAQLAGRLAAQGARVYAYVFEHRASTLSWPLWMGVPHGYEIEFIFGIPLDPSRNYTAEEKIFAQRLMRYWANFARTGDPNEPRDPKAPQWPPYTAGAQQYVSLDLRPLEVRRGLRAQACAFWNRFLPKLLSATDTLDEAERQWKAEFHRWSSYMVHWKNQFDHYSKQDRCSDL

**Q.** What does the source list for `Cn1c2nc3ccccc3c-2c(NCCCCNc2c3c(nc4ccccc24)CCCC3)c2ccccc21`?
**A.** IC50 (Acetylcholinesterase [1]): 53 nM; viability at 300 µM (in vitro [2]): 34.8%; viability at 100 µM (in vitro [3]): 33.8%; viability at 1 µM (in vitro [4]): 99.5%; viability at 10 µM (in vitro [5]): 37.2%; IC50 (Cholinesterase [6]): 21.8 nM

**Q.** What does the source list for `Nc1c2c(nc3cc(Cl)ccc13)C[C@H]1C=C(CCCCn3cc(CO)nn3)C[C@H]2C1`?
**A.** IC50 (Acetylcholinesterase [7]): 0.43 nM; IC50 (Cholinesterase [8]): 210 nM; Ratio IC50 (Homo sapiens): 488

**Q.** For `Cn1c2nc3ccccc3c-2c(NCCCCCCNc2c3c(nc4ccccc24)CCCC3)c2ccccc21`, which IC50 (Acetylcholinesterase [1]) is on record?
**A.** 1.25 nM

**Q.** What about the viability at 300 µM (in vitro [2]) of the same compound?
**A.** 36.5%

**Q.** And the viability at 100 µM (in vitro [3])?
**A.** 36.2%

**Q.** And the viability at 1 µM (in vitro [4])?
**A.** 40.9%

**Q.** What about the viability at 10 µM (in vitro [5]) of the same compound?
**A.** 34.9%

**Q.** And the IC50 (Cholinesterase [6])?
**A.** 9 nM

**Q.** Which results are given for `Cn1c2nc3ccccc3c-2c(NCCCCCCCCNc2c3c(nc4ccccc24)CCCC3)c2ccccc21`?
**A.** IC50 (Acetylcholinesterase [1]): 0.95 nM; viability at 300 µM (in vitro [2]): 37.9%; viability at 100 µM (in vitro [3]): 38.4%; viability at 1 µM (in vitro [4]): 78.1%; Ratio IC50 (Cholinesterase [9]): 17.4; Ratio IC50 (Acetylcholinesterase [10]): 368; viability at 10 µM (in vitro [5]): 41.4%; IC50 (Cholinesterase [6]): 2.29 nM
